Assays:
[1] = test system: myocardial infarction in adult rats; experiment: Thinning index (ventricular wall thinning) after myocardial infarction; assay type: in vivo, rat
Experimental: To determine whether p38 inhibition/FGF1 stimulation can induce cardiomyocyte proliferation in vivo and whether it has a positive effect on cardiac function after cardiac injury we created myocardial infarctions (MI) in adult rats (250 g) by coronary artery ligation. The p38 inhibitor SB203580 HCl or its vehicle, saline, were injected intraperitoneal every three days for the first month of the study. FGF1 or its carrier BSA was injected mixed with self-assembling peptides once into the infarct border zone immediately after coronary artery ligation. […] Animals were analyzed 24 hours, 2 weeks, and 3 month after surgery. […]
Ventricular wall thinning is an important parameter of heart function. Thus, we determined the thickness of the ventricular wall after injury. For this purpose we calculated the thinning index (ratio of minimal ventricular wall thickness to maximal thickness of the septum). […]
Scar formation was determined as fibrotic area/(fibrotic+non-fibrotic area) based on all sections. The thinning index is a ratio of the amount of wall thinning in the infarct normalized to the thickness of the septum and is calculated by dividing the minimal infarct wall thickness with maximal septal wall thickness (2 weeks: section 1 to 4, 3 month: section 1 to 6 from base).

[2] = test system: neonatal (P2) cardiomyocytes; experiment: Induction of DNA synthesis (BrdU incorporation) in neonatal cardiomyocytes; assay type: cell-based, rat; details: BrdU labeling period 24 to 72 hours; harvested after 72 hours; optimal concentration of stimulus
Experimental: Animal experiments were performed in accordance with guidelines of Children's Hospital, Boston and UCLA. Ventricular cardiomyocytes from fetal (E19), 2-day-old (P2) and adult (250-350 g) Wistar rats (Charles River) were isolated as described with minor modifications (Engel et al. 1999; Engel et al. 2003). After digestion of fetal or neonatal hearts (0.14 mg/ml collagenase II (Invitrogen), 0.55 mg/ml pancreatin (Sigma)) cells were cultured in DMEM/F12 (GIBCO) containing 3 mM Na-pyruvate, 0.2% BSA, 0.1 mM ascorbic acid (Sigma), 0.5% Insulin-Transferrin-Selenium (100×), penicillin (100 U/ml), streptomycin (100 μg/ml), and 2 mM L-glutamine (GIBCO). Adult cardiomyocytes were cultured for 1 day in standard medium (DMEM, 25 mM Hepes, 5 mM taurine, 5 mM creatine, 2 mM L-carnitine (Sigma), 20 U/ml insulin (GIBCO), 0.2% BSA, penicillin (100 U/ml), and streptomycin (100 μg/ml)). Cells were stimulated in culture medium without BSA containing 2 mM L-glutamine. Neonatal and adult cardiomyocytes were initially cultured for 48 h in the presence of 20 μM cytosine β-D-arabinofuranoside (araC, Sigma) and 5% horse serum before stimulation to prevent proliferation of non-myocytes. Adult cardiomyocytes were incubated another 3 days with araC during stimulation. Neonatal cardiomyocytes were stimulated every day with growth factors for BrdU and H3P analyses (FGF1 and NRG-1-1β at 50 ng/ml, IL-1β at 100 ng/ml, R&D Systems, all diluted in 0.1% BSA/PBS). SB203580 and LY294002 (Calbiochem) was added every day. Adult cardiomyocytes were stimulated with fresh medium and SB203580 every 3 days.
Staining was performed as described (Supplemental Table S3) (Engel et al. 1999; Engel et al. 2003). Immune complexes were detected with ALEXA 350, ALEXA 488 or ALEXA 594-conjugated secondary antibodies (1:200, Molecular Probes). DNA was visualised with DAPI (4′,6′-diamidino-2-phenylindole, 0.5 μg/ml, Sigma). For BrdU, cells were cultured in 30 μM BrdU, incubated after permeabilization for 90 min in 2N HCl/1% triton X-100 and washed 3 times in PBS.
(§1) Eighteen to 40 hearts of 3 different litters were used for quantitative analyses of maximal areas. For immunofluorescence analyses 1,500 fetal or neonatal cardiomyocytes were counted. For adult cardiomyocyte analyses in vitro the following number of cells were counted: 500-2,000 for BrdU or Ki67, 9,000-25,000 for H3P, and 12,000-45,000 for aurora B. For in vivo MKK3bE and p38α knockout experiments 2 different litters were used. We counted 1,500-2,000 cells in each apex, left and right ventricle per heart. For adult experiments we analyzed 2 p38α^Δ/Δ and 2 p38^lox/lox hearts (24 sections each). Statistical significance was determined using Student's t test.
Several growth factors have a limited capacity to induce DNA synthesis in neonatal cardiomyocytes, including FGF1 (Pasumarthi and Field 2002). We screened 45 extracellular factors at two different concentrations for their ability to induce BrdU incorporation in neonatal (P2) cardiomyocytes. […] We confirmed previous studies showing that FGF1, IL-1β, and NRG-1-β1 are potent growth factors for neonatal cardiomyocytes (Supplemental Table S2) (Pasumarthi and Field 2002 Circ Res 90: 1044-54).
Inhibition of p38 activity by SB203580 increased BrdU incorporation 2.8-fold in neonatal cardiomyocytes stimulated with FGF1 (p<0.01). Similar results were obtained after stimulation with IL-1β and NRG-1-β1. Thus, inhibition of p38 activity augments growth factor-mediated DNA synthesis in neonatal cardiomyocytes.

[3] = test system: adult cardiomyocytes; experiment: Ki67 staining of adult cardiomyocytes; assay type: cell-based, rat; details: 12 days of stimulation
Experimental: Animal experiments were performed in accordance with guidelines of Children's Hospital, Boston and UCLA. Ventricular cardiomyocytes from fetal (E19), 2-day-old (P2) and adult (250-350 g) Wistar rats (Charles River) were isolated as described with minor modifications (Engel et al. 1999; Engel et al. 2003). After digestion of fetal or neonatal hearts (0.14 mg/ml collagenase II (Invitrogen), 0.55 mg/ml pancreatin (Sigma)) cells were cultured in DMEM/F12 (GIBCO) containing 3 mM Na-pyruvate, 0.2% BSA, 0.1 mM ascorbic acid (Sigma), 0.5% Insulin-Transferrin-Selenium (100×), penicillin (100 U/ml), streptomycin (100 μg/ml), and 2 mM L-glutamine (GIBCO). […]
Staining was performed as described (Supplemental Table S3) (Engel et al. 1999; Engel et al. 2003). Immune complexes were detected with ALEXA 350, ALEXA 488 or ALEXA 594-conjugated secondary antibodies (1:200, Molecular Probes). […]
as §1, with “For adult experiments we analyzed 2 p38α^Δ/Δ and 2 p38^lox/lox hearts (24 sections each). Statistical significance was determined using Student's t test.” left out

FGF1: growth factor FGF1 (R&D Systems) was tested, and the “left ventricular wall thinning (thinning index)” value ([1]; 2 weeks) was “significantly reduced”, the ventricular wall thinning ([1]; 3 month) was “significantly improved” and the “% of BrdU positive neonatal cardiomyoctes” value [2] was 61.8 ± 2.1%. It also gave a Ki67-positive adult cardiomyocytes [3] of 1.7±0.5%.
